From patent US8071797B2 (priority 2008, dated 2011)

Each compound was assayed against T1, HCV polymerase (NS5B570n-Con1) (Hepatitis C virus genotype 1b, UniProt Q9WMX2) (assay: HCV NS5B RNA polymerase activity assay). Settings: IC50 NS5B polymerase assay, Table I.
T1 construct: contains a 21 amino acid deletion at the C-terminus relative to the full-length HCV polymerase; 6-histidine (N); made in house; host or cells: E. coli BL21 (DE) pLysS
Type: biochemical, HCV Con1 strain
Description: The enzymatic activity of HCV polymerase (NS5B570n-Con1) was measured as the incorporation of radiolabeled nucleotide monophosphates into acid insoluble RNA products. Unincorporated radiolabeled substrate was removed by filtration and scintillant was added to the washed and dried filter plate containing radiolabeled RNA product. The amount of RNA product generated by NS5B570-Con1 at the end of the reaction was directly proportional to the amount of light emitted by the scintillant.
The N-terminal 6-histidine tagged HCV polymerase, derived from HCV Con1 strain, genotype 1b (NS5B570n-Con1) contains a 21 amino acid deletion at the C-terminus relative to the full-length HCV polymerase and was purified from E. coli strain BL21 (DE) pLysS. The construct, containing the coding sequence of HCV NS5B Con1 (GenBank accession number AJ242654) was inserted into the plasmid construct pETI 7b, downstream of a T7 promoter expression cassette and transformed into E. coli. A single colony was grown overnight as a starter culture and later used inoculate 10 L of LB media supplemented with 100 μg/mL ampicillin at 37° C. Protein expression was induced by the addition of 0.25 mM isopropyl-β-D-thiogalactopyranoside (IPTG) when optical density at […] of the culture was between 0.6 and 0.8 and cells were harvested after 16 to 18 h at 30° C. NS5B570n-Con1 was purified to homogeneity using a three-step protocol including subsequent column chromatography on Ni-NTA, SP-Sepharose HP and Superdex 75 resins.
Each 50 μl enzymatic reaction contained 20 nM RNA template derived from the complementary sequence of the Internal Ribosome Entry Site (cIRES), 20 nM NS5B570n-Con1 enzyme, 0.5 μCi of tritiated UTP (Perkin Elmer catalog no. TRK-412; specific activity: 30 to 60 Ci/mmol; stock solution concentration from 7.5×10^-5 M to 20.6×10^-6 M), 1 μM each ATP, CTP, and GTP, 40 mM Tris-HCl pH 8.0, 40 mM NaCl, 4 mM DTT (dithiothreitol), 4 mM MgCl2, and 5 μl of compound serial diluted in DMSO. Reaction mixtures were assembled in 96-well filter plates (cat #MADVN0B, Millipore Co.) and incubated for 2 h at 30° C. Reactions were stopped by addition of 10% final (v/v) trichloroacetic acid and incubated for 40 min at 4° C. Reactions were filtered, washed with 8 reaction volumes of 10% (v/v) trichloroacetic acetic acid, 4 reaction volumes of 70% (v/v) ethanol, air dried, and 25 μl of scintillant (Microscint 20, Perkin-Elmer) was added to each reaction well.
The amount of light emitted from the scintillant was converted to counts per minute (CPM) on a Topcount® plate reader (Perkin-Elmer, Energy Range: Low, Efficiency Mode Normal, Count Time: 1 min, Background Subtract: none, Cross talk reduction: Off).
Data was analyzed in Excel® (Microsoft®) and ActivityBase® (idbsg). The reaction in the absence of enzyme was used to determine the background signal, which was subtracted from the enzymatic reactions. Positive control reactions were performed in the absence of compound, from which the background corrected activity was set as 100% polymerase activity. All data was expressed as a percentage of the positive control. The compound concentration at which the enzyme-catalyzed rate of RNA synthesis was reduced by 50% (IC50) was calculated by fitting
[formula] equation (t) to the data.where “Y” corresponds to the relative enzyme activity (in %), “% Min” is the residual relative activity at saturating compound concentration, “% Max” is the relative maximum enzymatic activity, “X” corresponds to the compound concentration, and “S” is the Hill coefficient (or slope).
In the case of `CNC(=O)c1c(-c2ccc(Oc3ccc(F)cc3)cc2)oc2cc(N(CCN)C(C)=O)c(OC)cc12` [Compound I-54], the IC50 is reported as 1240 nM. Work on `CNC(=O)c1c(-c2ccc(Oc3ccc(F)cc3)cc2)oc2cc(N(CCO)S(C)(=O)=O)c(C)cc12` [Compound I-55] yielded an IC50 of 44 nM. With `CNC(=O)c1c(-c2ccc(Oc3ccc(F)cc3)cc2)oc2cc(N(CC3CCOCC3)S(C)(=O)=O)c(C3CC3)cc12` [Compound I-56] the IC50 was 157 nM. `CNC(=O)c1c(-c2ccc(Oc3ccc(F)cc3)cc2)oc2cc(N(CCOC)S(C)(=O)=O)c(C3CC3)cc12` [Compound I-57] was tested, and the IC50 was 110 nM. For `CNC(=O)c1c(-c2ccc(Oc3ccc(F)cc3F)cc2)oc2cc(N(CCO)S(C)(=O)=O)c(C3CC3)cc12` [Compound I-58], the IC50 was 85 nM. Work on `CNC(=O)c1c(-c2ccc(Oc3ccccc3F)cc2)oc2cc(N(C)S(C)(=O)=O)c(C)cc12` [Compound I-59, 2-[4-(2-Fluoro-phenoxy)-phenyl]-6-(methanesulfonyl-methyl-amino)-5-methyl-benzofuran-3-carboxylic acid methylamide] yielded an IC50 of 93 nM. In the case of `CNC(=O)c1c(-c2ccc(Oc3ccc(F)cc3)cc2)oc2cc(N(CC3CCOC3)S(C)(=O)=O)c(C3CC3)cc12` (stereo not shown) [Compound I-60], the IC50 is reported as 115 nM. Compound `CNC(=O)c1c(-c2ccc(Oc3ccccc3F)cc2)oc2cc(N(CCO)S(C)(=O)=O)c(C3CC3)cc12` [Compound I-61] has an IC50 of 35 nM. `CNC(=O)c1c(-c2ccc(Nc3ccc(F)cc3)cc2)oc2cc(N(CCO)S(C)(=O)=O)c(C3CC3)cc12` [Compound I-62] showed an IC50 of 13 nM. `CCCc1cc2c(C(=O)NC)c(-c3ccc(Oc4ccccc4F)cc3)oc2cc1N(CCO)S(C)(=O)=O` [Compound I-65, 2-[4-(2-Fluoro-phenoxy)-phenyl]-6-[(2-hydroxy-ethyl)-methanesulfonyl-amino]-5-propyl-benzofuran-3-carboxylic acid methylamide] gave an IC50 of 21 nM. Compound `CNC(=O)c1c(-c2ccc(Oc3ccc(F)cc3)cc2)oc2cc(N(C)S(C)(=O)=O)c(Cl)cc12` [Compound I-66] has an IC50 of 29 nM. Work on `CNC(=O)c1c(-c2ccc(Oc3ccc(F)cc3)cc2)oc2cc(N(CC(C)O)S(C)(=O)=O)c(C3CC3)cc12` (stereo not shown) [Compound I-68] yielded an IC50 of 26 nM. For `CNC(=O)c1c(-c2ccc(Oc3ccc(F)cc3)cc2)oc2cc(N(CC3COC3)S(C)(=O)=O)c(C3CC3)cc12` [Compound I-70, 5-Cyclopropyl-2-[4-(4-fluoro-phenoxy)-phenyl]-6-(methanesulfonyl-oxetan-3-ylmethyl-amino)-benzofuran-3-carboxylic acid methylamide], the IC50 was 13 nM. `CNC(=O)c1c(-c2ccc(Oc3ccc(F)cc3)cc2)oc2cc(N(Cc3ccncc3)S(C)(=O)=O)c(C3CC3)cc12` [Compound I-71] showed an IC50 of 9 nM. In the case of `CNC(=O)c1c(-c2ccc(Oc3ccc(F)cc3)cc2)oc2cc(N(C3CCOCC3)S(C)(=O)=O)c(C3CC3)cc12` [Compound I-72], the IC50 is reported as 591 nM. `CNC(=O)c1c(-c2ccc(Oc3ccc(F)cc3)cc2)oc2cc(N(CC(N)=O)S(C)(=O)=O)c(C3CC3)cc12` [Compound I-73] gave an IC50 of 56 nM. `CNC(=O)c1c(-c2ccc(Oc3ccc(F)cc3)cc2)oc2cc(N(C3CNC3)S(C)(=O)=O)c(C3CC3)cc12` [Compound I-75] was tested, and the IC50 was 300 nM. Compound `CNC(=O)c1c(-c2ccc(Oc3ccc(F)cc3)cc2)oc2cc(N(C3CCNCC3)S(C)(=O)=O)c(C3CC3)cc12` [Compound I-76] has an IC50 of 376 nM. Compound `CNC(=O)c1c(-c2ccc(Oc3ccc(F)cc3)cc2)oc2cc(N(CC(C)(C)O)S(C)(=O)=O)c(C3CC3)cc12` [Compound I-78] has an IC50 of 55 nM. With `CNC(=O)c1c(-c2ccc(Oc3ccc(F)cc3)cc2)oc2cc(N(CCNC(C)=O)S(C)(=O)=O)c(C3CC3)cc12` [Compound I-79] the IC50 was 68 nM. Compound `CNC(=O)c1c(-c2ccc(Oc3ccc(F)cc3)cc2)oc2cc(N(CCNS(C)(=O)=O)S(C)(=O)=O)c(C3CC3)cc12` [Compound I-80] has an IC50 of 179 nM. For `CNC(=O)c1c(-c2ccc(Oc3ccc(F)cc3)cc2)oc2cc(N(CCSC)S(C)(=O)=O)c(C3CC3)cc12` [Compound I-81, 5-Cyclopropyl-2-[4-(4-fluoro-phenoxy)-phenyl]-6-[methanesulfonyl-(2-methylsulfanyl-ethyl)-amino]-benzofuran-3-carboxylic acid methylamide], the IC50 was 16 nM. For `CNC(=O)c1c(-c2ccc(Oc3ccc(F)cc3)cc2)oc2cc(N(C3CCOC3)S(C)(=O)=O)c(C3CC3)cc12` (stereo not shown) [Compound I-84], the IC50 was 155 nM. Compound `CNC(=O)c1c(-c2ccc(Oc3ccccc3)cc2)oc2cc(-c3c(C)noc3C)c(C3CC3)cc12` [Compound I-85, 5-Cyclopropyl-6-(3,5-dimethyl-isoxazol-4-yl)-2-(4-phenoxy-phenyl)-benzofuran-3-carboxylic acid methylamide] has an IC50 of 344 nM. `CNC(=O)c1c(-c2ccc(Oc3ccccc3)cc2)oc2cc(C(C)=O)c(C3CC3)cc12` [Compound I-86] showed an IC50 of 362 nM. Compound `CNC(=O)c1c(-c2ccc(Oc3ccc(F)cc3)cc2)oc2cc(N(CC3(C)COC3)S(C)(=O)=O)c(C3CC3)cc12` [Compound I-87] has an IC50 of 134 nM. In the case of `CNC(=O)c1c(-c2ccc(Oc3ccc(F)cc3)cc2)oc2cc(N(Cc3cncnc3)S(C)(=O)=O)c(C3CC3)cc12` [Compound I-88], the IC50 is reported as 26 nM. `CNC(=O)c1c(-c2ccc(Oc3ccccc3)cc2)oc2cc(-c3ccc[nH]3)c(C3CC3)cc12` [Compound I-89, 5-Cyclopropyl-2-(4-phenoxy-phenyl)-6-(1H-pyrrol-2-yl)-benzofuran-3-carboxylic acid methylamide] showed an IC50 of 722 nM. `CNC(=O)c1c(-c2ccc(Oc3ccccc3)cc2)oc2cc(C3CCCN3)c(C3CC3)cc12` (stereo not shown) [Compound I-90, 5-5-Cyclopropyl-2-(4-phenoxy-phenyl)-6-pyrrolidin-2-yl-benzofuran-3-carboxylic acid methylamideyclopropyl-2-(4-phenoxy-phenyl)-6-pyrrolidin-2-yl-benzofuran-3-carboxylic acid methylamide] showed an IC50 of 254 nM. In the case of `CNC(=O)c1c(-c2ccc(Oc3ccc(F)cc3)cc2)oc2cc(N(C3CCNC3)S(C)(=O)=O)c(C3CC3)cc12` (stereo not shown) [Compound I-91, 5-Cyclopropyl-2-[4-(4-fluoro-phenoxy)-phenyl]-6-(methanesulfonyl-pyrrolidin-3-yl-amino)-benzofuran-3-carboxylic acid methylamide], the IC50 is reported as 24 nM. With `CNC(=O)c1c(-c2ccc(Oc3ccc(F)cc3)cc2)oc2cc(N(CCCCN)S(C)(=O)=O)c(C3CC3)cc12` [Compound I-92] the IC50 was 56 nM. Work on `CNC(=O)c1c(-c2ccc(Oc3ccc(F)cc3)cc2)oc2cc(N(C3CCN(S(C)(=O)=O)C3)S(C)(=O)=O)c(C3CC3)cc12` (stereo not shown) [Compound I-94, 5-cyclopropyl-2-[4-(4-fluoro-phenoxy)-phenyl]-6-[methanesulfonyl-(1-methanesulfonyl-pyrrolidin-3-yl)-amino]-benzofuran-3-carboxylic acid methylamide] yielded an IC50 of 28 nM. For `CNC(=O)c1c(-c2ccc(Oc3ccc(F)cc3)cc2)oc2cc(N(C(C)CN)S(C)(=O)=O)c(C3CC3)cc12` (stereo not shown) [Compound I-95], the IC50 was 60 nM. `CNC(=O)c1c(-c2ccc(Oc3ccc(F)cc3)cc2)oc2cc(N(CCCC#N)S(C)(=O)=O)c(C3CC3)cc12` [Compound I-96] showed an IC50 of 7 nM.
